From US12514832B2, “Methods for using low-dose colchicine after myocardial infarction” (INSTITUT DE CARDIOLOGIE DE MONTREAL, priority 2019, dated 2026)
“And” between values parts separate entries of the source, which are not always exact repeats. Equal values may be shown once.

Test system: rs149354567 (CDRT8/PMP22, chromosome 17); rs10811106 (SAXO1, chromosome 9)
Assay: COLCOT pharmacogenomic GWAS and Cox / recurrent-event analyses of the primary efficacy end point by genotype
Format: in vivo, human
Details: for Primary end point, HR (95% CI) for rs149354567 minor (GA) versus major (G) allele: Cox, controlling for age, sex, C1-C10; for Recurrent primary end point events, Hazard Ratio (95% CI), Andersen-Gill model / Recurrent primary end point events, Hazard Ratio (95% CI), WLW model K = 2, 1st Event / Recurrent primary end point events, Hazard Ratio (95% CI), WLW model K = 2, 2nd Event / Recurrent primary end point events, Hazard Ratio (95% CI), WLW model K = 2, Average / Recurrent primary end point events, Rate Ratio (95% CI), Negative binomial model: colchicine vs placebo
Excerpt: FIG. 3 is a Manhattan plot of a Genome-wide Association Study (GWAS) with common single-nucleotide polymorphisms (SNPs) with minor allele frequency (MAF)≥5% for the primary efficacy end point using a survival analysis (coxph) regression with all patients in colchicine treatment arm (compliant ITT pgx population) in the COLCOT cohort, controlling for age, sex, principal components (C1-C10) with a threshold of 5.000E-08 (4,462,492 variants and 702 samples).
FIG. 4 is a plot of SNPs located on chromosome 17 (from 14,623,118 to 15,623,118 bp) for the primary efficacy end point using a survival analysis (coxph) regression with all patients in colchicine treatment arm (compliant ITT pgx population) in the COLCOT cohort, controlling for age, sex, principal components (C1-C10) with a threshold of 5.000E-08 (4,462,492 variants and 702 samples).
(§1) FIG. 8 is a Manhattan plot of GWAS with common SNPs with MAF≥5% for the primary efficacy endpoint using a survival analysis (coxph) regression with male patients in colchicine treatment arm (compliant ITT pgx population) in the COLCOT cohort, controlling for age, sex specific principal components (SC1-SC10) with a threshold of 5.000E-08 (4,455,743 variants and 576 samples).
as §1, with “FIG. 9” for “FIG. 8”, “a” for “a Manhattan”, “of single-nucleotide polymorphisms (SNPs) located on chromosome 9 (from 18,537,533 to 19,537,533 bp)” for “of GWAS with common SNPs with MAF≥5%”, “for” for “for the”
A Genome-wide Association Study (GWAS) was performed for the COLCOT primary efficacy end points. The primary efficacy endpoints were, the earliest occurrence of: cardiovascular death, resuscitated cardiac arrest, acute myocardial infarction, stroke, or urgent hospitalization for angina requiring coronary revascularization.
A plot of SNPs located on chromosome 17 (from 14,623,118 to 15,623, 118 bp) for the primary efficacy end point using a survival analysis (coxph) regression with all patients in colchicine treatment arm (compliant ITT pgx population) in the COLCOT cohort is shown in FIG. 4. Within this region, SNP rs149354567 was identified for further analysis (Table 10). SNP rs149354567 is intergenic for the CDR8T (CMT1A duplicated region transcript 8) gene and the PMP22 (peripheral myelin protein 22) gene.
A Cox statistical analysis for the primary endpoint comparing the chromosome 17 SNP rs149354567 minor versus major alleles by treatment arms is shown in Table 11 below.
A Cox statistical analysis for the primary end point comparing colchicine versus placebo for SNP rs149354567 genotypes is shown in Table 12 below.
The above analysis is based on time to first event among the components of the primary end point. Three other analyses were also considered to account for multiple events within subjects. These analyses make use of all events, including the ones that occur after the first. The Wei, Lin, and Weissfeld (WLW) marginal model, the Andersen and Gill (AG) model, and the negative binomial model were used.
A further region of the genome with a genetic variant, rs10811106, that, in males, is associated with efficacy of colchicine in the prevention of cardiovascular events in participants recruited within 30 days of a myocardial infarction (acute coronary syndrome) was identified using similar statistical analyses (FIG. 8). SNP rs10811106 is intronic in the SAXO1 (stabilizer of axonemal microtubules 1) gene (FIG. 9). SNP rs10811106 was associated with the primary efficacy endpoint of COLCOT (composite of cardiovascular death, resuscitated cardiac arrest, myocardial infarction, stroke, or urgent hospitalization for angina requiring coronary revascularization) in the colchicine treatment arm (P=5.8×10^−8).

[1] = colchicine arm N=2, rs149354567 genotype GA/GA
[2] = colchicine arm N=102, rs149354567 genotype G/GA
[3] = colchicine arm N=585, rs149354567 genotype G/G
[4] = colchicine arm N=689, all rs149354567 genotypes
[5] = rs10811106 chr 9, EA T vs NEA C, N 564, 30 events

## COc1cc2c(c(OC)c1OC)-c1ccc(OC)c(=O)cc1[C@@H](NC(C)=O)CC2 [Colchicine, colchicine]
Carriers of genotype G-/G- at rs149354567
  fewer cardiovascular events with colchicine compared to placebo: 40%
Colchicine arm
  Recurrent primary end point events, Hazard Ratio (95% CI) for one unit increase of rs149354567 dosage, Andersen-Gill model: 4.55 (2.45; 8.46)
  Recurrent primary end point events, Hazard Ratio (95% CI) for one unit increase of rs149354567 dosage, WLW model K = 2, 1st Event: 5.30 (2.90; 9.70)
  Recurrent primary end point events, Hazard Ratio (95% CI) for one unit increase of rs149354567 dosage, WLW model K = 2, 2nd Event: 3.96 (0.99; 15.80)
  Recurrent primary end point events, Hazard Ratio (95% CI) for one unit increase of rs149354567 dosage, WLW model K = 2, Average: 5.28 (2.88; 9.66)
  Recurrent primary end point events, Rate Ratio (95% CI) for one unit increase of rs149354567 dosage, Negative binomial model: 4.58 (2.40; 8.74)
Colchicine arm N=2, genotype GA/GA
  Primary end point events rate per 100 subject-months: 0 per 100 subject-months
Colchicine arm N=2, genotype GA/GA, 24 follow-up months
  Total number of primary end point events: 0
Colchicine arm N=2, rs149354567 GA/GA
  Primary end point, patients with events (at least one event): 0
[1]
  Number of subjects with 0 primary end point events: 2
  Number of subjects with 1 primary end point event: 0
  Number of subjects with 2 primary end point events: 0
  Number of subjects with 3 primary end point events: 0
  Number of subjects with 4 primary end point events: 0
Colchicine arm N=102, genotype G/GA
  Primary end point events rate per 100 subject-months: 0.71 per 100 subject-months
Colchicine arm N=102, genotype G/GA, 2678 follow-up months
  Total number of primary end point events: 19
Colchicine arm N=102, rs149354567 G−/GA
  Primary end point, patients with events (at least one event): 17
[2]
  Number of subjects with 0 primary end point events: 85
  Number of subjects with 1 primary end point event: 15
  Number of subjects with 2 primary end point events: 2
  Number of subjects with 3 primary end point events: 0
  Number of subjects with 4 primary end point events: 0
Colchicine arm N=104, rs149354567 G−/GA+GA/GA
  Primary end point, patients with events: 17
Colchicine arm N=585, genotype G/G
  Primary end point events rate per 100 subject-months: 0.16 per 100 subject-months
Colchicine arm N=585, genotype G/G, 14370 follow-up months
  Total number of primary end point events: 23
Colchicine arm N=585, rs149354567 G−/G−
  Primary end point, patients with events (at least one event): 20
[3]
  Number of subjects with 0 primary end point events: 565
  Number of subjects with 1 primary end point event: 17
  Number of subjects with 2 primary end point events: 3
  Number of subjects with 3 primary end point events: 0
  Number of subjects with 4 primary end point events: 0
[4]
  Number of subjects with 0 primary end point events: 652
  Number of subjects with 1 primary end point event: 32
  Number of subjects with 2 primary end point events: 5
  Number of subjects with 3 primary end point events: 0
  Number of subjects with 4 primary end point events: 0
  Primary end point events rate per 100 subject-months: 0.25 per 100 subject-months
Colchicine arm N=689, all rs149354567 genotypes, 17072 follow-up months
  Total number of primary end point events: 42
Colchicine arm N=689, all rs149354567 genotypes, compliant ITT pgx population
  Primary end point, patients with events (at least one event): 37
Colchicine arm, all rs149354567 genotypes
  Primary end point, % of events: 5.4%
Colchicine arm, males + females, compliant ITT pgx population
  Primary end point, hr per effect allele, rs75780450 (T vs C): 4.611
Colchicine arm, males only
  Primary end point, hr per effect allele, rs1854156 (C vs G): 5.104
  Primary end point, hr per effect allele, rs10118790 (A vs G): 5.05
  Primary end point, hr per effect allele, rs10811106 (T vs C): 5.503
  Primary end point, hr per effect allele, rs10963895 (A vs G): 4.191
  Primary end point, hr per effect allele, rs28733572 (C vs G): 5.043
Colchicine arm, rs149354567 G−/GA
  Primary end point, % of events: 16.7%
Colchicine arm, rs149354567 G−/GA+GA/GA
  Primary end point, % of events: 16.3%
Colchicine arm, rs149354567 G−/G−
  Primary end point, % of events: 3.4%
Colchicine arm, compliant ITT pgx population
  Primary end point, HR (95% CI) for rs149354567 minor (GA) versus major (G) allele: 5.30 (2.84-9.89)
Colchicine arm, compliant ITT pgx population, listed as colchicine
  Primary end point, HR (95% CI) for rs149354567 minor (GA) versus major (G) allele: 5.30 and 5.299
All rs149354567 genotypes
  Recurrent primary end point events, Hazard Ratio (95% CI), Andersen-Gill model: 0.61 (0.39; 0.96)
  Recurrent primary end point events, Hazard Ratio (95% CI), WLW model K = 2, 1st Event: 0.82 (0.53; 1.28)
  Recurrent primary end point events, Hazard Ratio (95% CI), WLW model K = 2, 2nd Event: 0.28 (0.10; 0.73)
  Recurrent primary end point events, Hazard Ratio (95% CI), WLW model K = 2, Average: 0.80 (0.52; 1.25)
  Recurrent primary end point events, Rate Ratio (95% CI), Negative binomial model: 0.57 (0.34; 0.94)
rs149354567 genotype G/G
  Recurrent primary end point events, Hazard Ratio (95% CI), Andersen-Gill model: 0.48 (0.27; 0.85)
  Recurrent primary end point events, Hazard Ratio (95% CI), WLW model K = 2, 1st Event: 0.60 (0.34; 1.04)
  Recurrent primary end point events, Hazard Ratio (95% CI), WLW model K = 2, 2nd Event: 0.25 (0.07; 0.85)
  Recurrent primary end point events, Hazard Ratio (95% CI), WLW model K = 2, Average: 0.59 (0.34; 1.03)
  Recurrent primary end point events, Rate Ratio (95% CI), Negative binomial model: 0.43 (0.23; 0.82)
rs149354567 genotype G/G, listed as colchicine
  Recurrent primary end point events, Hazard Ratio (95% CI), Andersen-Gill model: 0.48
rs149354567 genotype G/GA
  Recurrent primary end point events, Hazard Ratio (95% CI), Andersen-Gill model: 0.84 (0.34; 2.11)
  Recurrent primary end point events, Hazard Ratio (95% CI), WLW model K = 2, 1st Event: 1.62 (0.69; 3.79)
  Recurrent primary end point events, Hazard Ratio (95% CI), WLW model K = 2, 2nd Event: 0.17 (0.03; 1.02)
  Recurrent primary end point events, Hazard Ratio (95% CI), WLW model K = 2, Average: 1.35 (0.58; 3.12)
  Recurrent primary end point events, Rate Ratio (95% CI), Negative binomial model: 0.91 (0.39; 2.08)
males, genotype C/C at rs10811106
  fewer cardiovascular events with colchicine compared to placebo: 54%
rs10811106 CT (16%), N total 182
  Primary end point in males only, HR (95% CI) colchicine versus placebo: 2.49 (0.92-6.75)
[5]
  Coefficient, genetic association, chromosome 9 locus (primary efficacy end point): 1.705
  HR (hazard ratio), genetic association, chromosome 9 locus (primary efficacy end point): 5.50
